Results published in patent US7871981B2, “Inhibition of cell motility, angiogenesis, and metastasis” (The United States of America as represented by the …, priority 1999, dated 2011).

Columns and labels:
TAC-2 cells = experiment: Epithelial tube formation assay, TAC-2 cells in collagen gels; format: cell-based
Experimental: TAC-2 cells were suspended in three-dimensional collagen gels at 1×10^4 cells/ml in collagen and incubated in complete medium containing HGF and/or Grb2 inhibitors as indicated. After 3 days, the cultures were fixed with 2.5% glutaraldehyde in 0.1 M cacodylate buffer, and at least 3 randomly selected fields per experimental condition in each of 3 separate experiments were digitally recorded with brightfield microscopy. The total length of the cords in each individual colony present in each optical field was measured with IPLab. Cord length was considered as “0” in: a) colonies with a spheroidal shape, and b) slightly elongated structures in which the length to diameter ratio was less than 2. The mean values for each experimental condition were compared to controls using the Student's unpaired t-test. Results in FIG. 5 are described as mean total cord length (in μm) per field.

HUVE cells [1] = experiment: HUVE cell migration, modified Boyden chamber; format: cell-based, human
Experimental: (§1) The migration assay of HUVE and HMEC-1 cells in modified Boyden chambers was adapted from previously described procedures (Murohara et al., Thromb. Vasc. Biol., 19: 1156-61 (1999), Malinda et al., FASEB J., 13: 53-62 (1999)). In brief, Biocoat Cell Environment control inserts (8 micron pore size; Becton Dickinson) were coated with 0.1% gelatin (Sigma) for at least 1 hour at 37° C. and air dried. Lower chambers contained 0.7 ml RPMI+0.1% BSA, to which 20 ng/ml HGF and/or 300 nM Grb2 inhibitors were added. Cells were pre-treated with the indicated concentrations of Grb2 inhibitors for 18-24 hours, trypsinized, washed twice in RPMI+0.1% BSA, added to upper chambers (5×10^4 cells/well) with or without inhibitors in a final volume of 0.5 ml, and incubated for 4 h at 37° C. Cells on the upper surface of each filter were removed with a cotton swab, while cells that had traversed to the bottom surface of the filter were fixed and stained using Diff-Quik (Dade Diagnostics) and counted using a 10× objective. Mean values from 4 randomly selected fields (1×1.4 mm) were calculated for each of triplicate wells per experimental condition. Shown in FIG. 6 is the ratio of growth factor-treated to control migrating cells designated on the y-axis as “Migration (Fold Increase)” or as the mean number of cells per optical field in FIGS. 8-11.

HMVE cells = experiment: HMVE cell migration, modified Boyden chamber; format: cell-based, human
Experimental: as §1

HUVE cells [2] = experiment: HUVE cell proliferation; format: cell-based, human
Experimental: HUVE or HMVE cells were seeded per triplicate in type I collagen-coated 48-well plates (Biocoat) (3000 cells/well) in […] of complete EGM-Bullet Kit medium (BioWhittaker, Walkersville, Md.), allowed to attach for 4 hr and incubated overnight with or without the indicated concentrations of peptide 2. The cultures were rinsed twice in serum-free medium and incubated with EBM medium (BioWhittaker) supplemented with 50 μg/ml heparin, 50 μg/ml ascorbic acid and 10% FCS. After either 4 days (HUVE) or 5 days (HMVE), cells were harvested with trypsin/EDTA and counted with an hemocytometer. The mean number of cells per ml was calculated from 3 independent measures for each of triplicate wells per experimental condition and compared to controls using the Student's unpaired t-test. Results set forth in FIG. 12 are described as the ratio of growth factor-treated to control proliferating cells designated on the y-axis as “Proliferation (Fold Increase)”.

PC3M cells = experiment: PC3M cell invasion across Matrigel-coated Transwell filters; format: cell-based, human; details: increasing concentrations, with or without HGF 40 ng/ml, 30 h
Experimental: After serum deprivation and pre-treatment for 16 hrs, PC3M cells were assayed in cell culture inserts (BD Biosciences), 8 micron-pore-size polyethylene terephthalate membrane with Falcon cell culture inserts (Becton Dickinson). Pre-treated cells were trypsinized and counted; a total of 1×10^5 cells in serum free medium (500 microliters) were added to the upper chamber, and 500 microliters of serum free media with the relative concentration of C90 and HGF were added to the lower chamber. […] Then the cells in the inside of the upper chamber were removed with a cotton swab and cell on the other side of the membrane were fixed and stained using Diff-Quick (Dade Diagnostics, Deerfield, Ill.). Photographs of […] random fields were taken and cells were counted by bright field microscopy using a 10× objective. Mean values from four randomly selected fields (1×1.4 mm) were calculated for each of triplicate wells per experimental condition.
FIG. 13B depicts bar graphs of PC3M cell invasion across Matrigel-coated Transwell filters in the presence (filled bars) or absence (unfilled bars) of HGF (40 ng/ml, 30 h).

B16 mouse melanoma cells = experiment: Growth rate and viability in culture of C-90 treated B16 cells; format: cell-based; details: same study period

SMILES: NC(=O)C[C@H](NC(=O)C1(NC(=O)[C@H](Cc2ccc(C(C(=O)O)C(=O)O)cc2)NC(=O)C(=O)O)CCCCC1)C(=O)NCCCc1cccc2ccccc12 [peptide 2, (N-oxalyl-4-malonyl)-Phe-Ac6c-Asn-NH-(3-naphthalen-1-yl-propyl)]
- HGF-induced elongation of epithelial tubes (cord length) (TAC-2 cells; HGF 20 ng/ml, 3 days): significantly (p<0.0001) abrogate
- concentration at which a sub-maximal inhibitory effect is already observed (TAC-2 cells; HGF-induced tube elongation): 30 nM
- VEGF-induced cell migration (HUVE cells [1]; VEGF): significantly (p<0.001) reverted
- PMA-induced cell migration (HUVE cells [1]; peptide 300 nM, PMA 40 ng/ml): dramatically reverted to basal levels
- VEGF-induced cell migration (HMVE cells; VEGF): significantly (p<0.001) reverted
- cell migration induced by HGF (HMVE cells; peptide 300 nM, HGF 0-50 ng/ml): abolished
- abolition of the effect of the optimal concentration of bFGF (HMVE cells; peptide 300 nM, bFGF 5 ng/ml): 72%
- biphasic stimulatory activity of bFGF on migration (HMVE cells; peptide 300 nM, bFGF 0.2-50 ng/ml): significantly (p<0.001) inhibited
- HGF- VEGF-induced HUVE cell proliferation (HUVE cells [2]; peptide 30 nM): failed to significantly (p=0.05) inhibit
- bFGF-dependent HUVE cell proliferation (HUVE cells [2]; peptide 30 nM, p<0.0001): inhibited
- serum-dependent HUVE cell proliferation (HUVE cells [2]; peptide 30 nM, p<0.001): inhibited
- HGF- VEGF-induced HUVE cell proliferation (cell counts) (HUVE cells [2]; peptide 300 nM): significant (p<0.0001) reduction in cell counts
- PC3M cell invasiveness in vitro (PC3M cells): dose-dependent inhibition
- cell viability or growth rate in culture (B16 mouse melanoma cells): no differences in cell viability or growth rate
